Data published in ChEMBL document CHEMBL2203102, “Crucial Role of 3-Bromoethyl in Removing the Estrogenic Activity of 17β-HSD1 Inhibitor 16β-(m-Carbamoylbenzyl)estradiol” (ACS Med Chem Lett, 2011).

What was measured:
[1] = molecular target: T1, 17-beta-hydroxysteroid dehydrogenase type 1 (Homo sapiens) (UniProt P14061); assay: Inhibition of 17beta-HSD1 in human T47D cells assessed as decrease in transformation of [14C]estrone to [14C]-estradiol at 0.1 uM after 24 hrs by thin layer chromatography; type: cell-based
T1 sequence (whole entry): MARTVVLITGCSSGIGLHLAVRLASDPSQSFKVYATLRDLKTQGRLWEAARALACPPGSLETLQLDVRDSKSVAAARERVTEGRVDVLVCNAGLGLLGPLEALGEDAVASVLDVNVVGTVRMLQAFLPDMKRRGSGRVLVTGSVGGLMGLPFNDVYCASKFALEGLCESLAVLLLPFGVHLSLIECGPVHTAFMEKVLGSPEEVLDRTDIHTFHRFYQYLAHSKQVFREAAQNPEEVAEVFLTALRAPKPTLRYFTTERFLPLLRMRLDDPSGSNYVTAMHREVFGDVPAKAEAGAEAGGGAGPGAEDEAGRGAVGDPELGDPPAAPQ

[2] = molecular target: T1, 17-beta-hydroxysteroid dehydrogenase type 1 (Homo sapiens); assay: Inhibition of 17beta-HSD1 in human T47D cells assessed as decrease in transformation of [14C]estrone to [14C]-estradiol at 0.01 uM after 24 hrs by thin layer chromatography; type: cell-based
MCF7 = assay: Estrogenic activity in estrogen-starved estrogen sensitive human MCF7 cells assessed as stimulation of cell proliferation at 0.1 to 1 uM after 7 days by CellTiter96 assay; type: ADME, cell-based; settings: mcf7, 168 h

Row | Compound | inhibition [1] [%] | inhibition [2] [%] | Activity (MCF7)
1 | C[C@]12CC[C@@H]3c4ccc(CBr)cc4CC[C@H]3[C@@H]1C[C@H](Cc1cccc(C(N)=O)c1)[C@@H]2O | 36 | 20 | –
2 | C[C@]12CC[C@@H]3c4ccc(CCBr)cc4CC[C@H]3[C@@H]1C[C@H](Cc1cccc(C(N)=O)c1)[C@@H]2O | 49 | 23 | Non-toxic
3 | C[C@]12CC[C@@H]3c4ccc(CO)cc4CC[C@H]3[C@@H]1C[C@H](Cc1cccc(C(N)=O)c1)[C@@H]2O | – | 14 | –
4 | C[C@]12CC[C@@H]3c4ccc(O)cc4CC[C@H]3[C@@H]1C[C@H](Cc1cccc(C(N)=O)c1)[C@@H]2O | 66 | 35 | –
5 | C[C@]12CC[C@@H]3c4ccc(CCO)cc4CC[C@H]3[C@@H]1C[C@H](Cc1cccc(C(N)=O)c1)[C@@H]2O | 17 | 7 | –
